Test results taken from ChEMBL document CHEMBL1201862, “PubChem BioAssay data set” (2004).
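Five concentrations, 48 hours, 96-well plates. Here, GI50 denotes the concentration required for 50% inhibition of growth.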 Calls of active or inactive are those of the source. Cut-off read from the data, not from the text of the source: active = GI50 up to about 1.1 µM and inactive = higher.

Experiments:
Assay in all cases: inhibition of tumour cell growth, NCI panel, 48 h
786-0 = system: 786-0
A498 = system: A498
CCRF-CEM = system: CCRF-CEM
HOP-62 = system: HOP-62
HOP-92 = system: HOP-92
M19-MEL = system: M19-MEL
MOLT-4 = system: MOLT-4
Malme-3M = system: Malme-3M
NCI-H226 = system: NCI-H226
NCI-H23 = system: NCI-H23
SF-268 = system: SF-268
SR = system: SR
TK-10 = system: TK-10
U-251 = system: U-251
UO-31 = system: UO-31
SK-MEL-2 = system: SK-MEL-2

Measured: GI50

CCC(=O)c1c(NOC2OCC(OC(C)=O)C(OC(C)=O)C2OC(C)=O)nc(OC)n(C)c1=O (configuration not stated)
inactive: 786-0 > 100 µM | A498 > 100 µM | CCRF-CEM > 100 µM | HOP-62 > 100 µM | HOP-92 > 100 µM | M19-MEL > 100 µM | MOLT-4 > 100 µM | Malme-3M > 100 µM | NCI-H226 > 100 µM | NCI-H23 > 100 µM | SF-268 > 100 µM | SR > 100 µM | TK-10 > 100 µM | U-251 > 100 µM | UO-31 > 100 µM

CCOC(=O)C12CCCC1(O)N(NC(=O)c1cccc(Cl)c1)C(C)=C2C(=O)OC (configuration not stated)
inactive: 786-0 > 100 µM | A498 > 100 µM | HOP-62 > 100 µM | M19-MEL > 100 µM | MOLT-4 55.7 µM | Malme-3M > 100 µM | NCI-H226 > 100 µM | SF-268 > 100 µM | SK-MEL-2 > 100 µM | SR 53 µM | U-251 > 100 µM | UO-31 > 100 µM

Cc1ccc(S(=O)(=O)N/N=C/c2oc(-c3ccccc3Cl)c(-c3ccccc3Cl)c2[N+](=O)[O-])cc1
inactive: 786-0 19.5 µM | A498 20.8 µM | CCRF-CEM 7.24 µM | HOP-62 17.6 µM | HOP-92 28.5 µM | M19-MEL 23.3 µM | MOLT-4 11.5 µM | Malme-3M 24 µM | NCI-H23 13.4 µM | SF-268 36.1 µM | SK-MEL-2 25 µM | SR 7.64 µM | TK-10 59 µM | UO-31 17.8 µM

CC(=O)NNc1nc(C)c(C(/C=C/c2ccc(Cl)cc2)=N\N=C(N)N)s1
inactive: 786-0 > 100 µM | CCRF-CEM > 100 µM | HOP-62 > 100 µM | HOP-92 > 100 µM | M19-MEL > 100 µM | MOLT-4 > 100 µM | Malme-3M > 100 µM | NCI-H226 > 100 µM | NCI-H23 > 100 µM | SF-268 > 100 µM | SR > 100 µM | TK-10 > 100 µM | U-251 > 100 µM | UO-31 > 100 µM

Clc1ccc(CCn2cncn2)c(Cl)c1
inactive: 786-0 > 100 µM | CCRF-CEM > 100 µM | HOP-62 > 100 µM | HOP-92 > 100 µM | M19-MEL > 100 µM | MOLT-4 > 100 µM | NCI-H226 > 100 µM | NCI-H23 > 100 µM | SF-268 > 100 µM | SR > 100 µM | TK-10 > 100 µM | U-251 > 100 µM | UO-31 > 100 µM

COC(=O)CC(C(C(C)=O)C(=O)OCc1ccccc1)N1C(=O)OCC1c1ccccc1 (configuration not stated)
inactive: 786-0 > 100 µM | A498 67.9 µM | CCRF-CEM > 100 µM | HOP-62 > 100 µM | M19-MEL > 100 µM | MOLT-4 45.9 µM | Malme-3M > 100 µM | NCI-H226 60.5 µM | NCI-H23 > 100 µM | SF-268 > 100 µM | SK-MEL-2 > 100 µM | SR 74.5 µM | TK-10 > 100 µM | U-251 65.2 µM | UO-31 44.4 µM

COC(=O)C1CCC2(C)[C@H](CCC3O[C@]32C)[C@@]1(C)CC(=O)c1ccoc1 (some centres not stated)
inactive: 786-0 > 100 µM | A498 43 µM | CCRF-CEM 31.1 µM | HOP-62 > 100 µM | M19-MEL > 100 µM | MOLT-4 28.3 µM | Malme-3M > 100 µM | NCI-H226 > 100 µM | NCI-H23 71 µM | SF-268 48.4 µM | SR 41.5 µM | TK-10 36.9 µM | U-251 36.6 µM | UO-31 27.9 µM
